In patent US9801885B2, “Transvaginal phosphodiesterase inhibitors for infertility treatment” (PROKREA BCN, S.L., priority 2011, dated 2017):
Entries after “also recorded” stand apart in the source; their conditions may differ.

How the values were obtained:
[1] = test system: sperm of a semen sample from a patient with asthenozoospermia; experiment: In vitro assay of the effect of phosphodiesterase inhibitors on sperm motility; type: cell-based, human; parameters: key to Increase in sperm speed: the symbol ++ denotes a very significant increase in sperm motility; settings: vs untreated sample; for Increase in sperm type A + B: mixed 1:1 with semen; for Increase in sperm speed: subjective rating, all sperm types
Protocol: In each case the corresponding phosphodiesterase inhibitor (rolipram, milrinone, ibudilast and pentoxifylline) was dissolved in a commercial medium suitable for performing sperm preparations (SpermRinse®) to the desired concentration. […] A semen sample was taken from a patient with asthenozoospermia and it was kept at room temperature for 5 minutes after liquefaction, it was mixed with SpermRinse® solution without phosphodiesterase inhibitor in a volumetric ratio of 1:1. Another part of the semen was mixed also after liquefaction with the SpermRinse® solution containing the phosphodiesterase inhibitor also in a proportion of 1:1 by volume. For each observation, 3 microdrops of the preparation were used, they were placed under an optical microscope with 20× objective and Makler camera. A sperm count was performed, the number of type A sperm (advancing rapidly, with rectilinear trajectory) and type B sperm (advancing rapidly, with curvilinear trajectory) of each sample being counted. This was performed for the untreated sample and for the samples treated with the phosphodiesterase inhibitor. Three readings were made for each sample and the mean value was calculated. Likewise, a subjective observation of the increase of sperm speed of all the sperm types was also performed for the samples treated with the phosphodiesterase inhibitor, with respect to the untreated samples.

couples with infertility = experiment: Assay of the effectiveness of intravaginal pentoxifylline in the treatment of couples with infertility; type: in vivo, human
Protocol: The most fertile days were determined by cervical mucus test, vaginal ultrasound, or ovulation test. An ovulation inducer, clomiphene or purified human gonadotrofin, irrespectively, was simultaneously administered to 6 of the couples. The gel was administered in 3 different cycles or in several days of the same cycle. A meeting was conducted with the patients between 15 and 20 hours after each administration and a microscopic examination of the endocervical exudate was performed.

[2] = test system: infertile men with asthenozoospermia; settings: 1200 mg daily for four months, cited from earlier work
[3] = microscopic examination 15 to 20 hours after transvaginal administration

| Structure (SMILES) | Increase in sperm type A + B ([1]; 100 μM in SpermRinse) | Increase in sperm speed ([1]; 100 μM) | Increase in sperm type A + B ([1]; 1 μM in SpermRinse) | Increase in sperm speed ([1]; 1 μM) | pregnancies achieved (couples with infertility; among 20 couples, transvaginal gel of Example 2) | cervical mucus characteristics (filancia, transparency, leukocytic diathesis) (couples with infertility; [3]) | type A sperm (WHO classification) counted in cervical exudate (couples with infertility; [3]) | sperm quality in terms of motility in cervical exudate (couples with infertility; microscopic examination 15 to 20 hours after transvaginal administration, asthenozoospermia and normospermia) | side effects due to the treatment (couples with infertility; transvaginal administration in women) | pregnancy percentage (effectiveness) (couples with infertility; transvaginal, three single-doses of 10 g gel of Example 2 (4% pentoxifylline), after coitus, 20 couples) [%] | pregnancies counted after oral treatment ([2]; 15 infertile men) | pregnancy percentage after oral treatment ([2]; 15 infertile men) [%] | sperm motility of the subjects treated ([2]; oral) |
| --- | --- | --- | --- | --- | --- | --- | --- | --- | --- | --- | --- | --- | --- |
| CC(C)C(=O)c1c(C(C)C)nn2ccccc12 [Ibudilast, 2-methyl-1-(2-(1-methyethyl)pyrazolo(1,5-a)pyridin-3-yl)-1-propanone] | ++ (the symbol ++ indicates an increase greater than 40% in the A+B sperm type count) | ++ | – | – | – | – | – | – | – | – | – | – | – |
| Cc1[nH]c(=O)c(C#N)cc1-c1ccncc1 [Milrinone, 1,6-dihydro-2-methyl-6-oxo-(3,4′-bipyridine)-5-carbonitrile] | – | – | ++ (the symbol ++ indicates an increase greater than 40% in the A+B sperm type count) | ++ | – | – | – | – | – | – | – | – | – |
| CC(=O)CCCCn1c(=O)c2c(ncn2C)n(C)c1=O [Pentoxifylline, 3,7-dihydro-3,7-dimethyl-1-(5-oxohexyl)-1H-purine-2,6-dione] | – | – | ++ (the symbol ++ indicates an increase greater than 40% in the A+B sperm type count) | ++ | 4 | maintains and even improves the characteristics of cervical mucus; also recorded: improvement in the characteristics of cervical mucus | significant number of type A sperm | improvement in sperm quality in terms of motility | not observed in any case; also recorded: does not cause any type of allergy or side effect | 20 | 2 | 13.3 | substantial improvement in sperm motility |
